The results in this text go back to US7799778B1, “5-substituted 2-aminopyridine analogs for treating allergic and inflammatory diseases” (Alcon, Inc., priority 2005, dated 2010).

This assay has as its target Syk (h) (Homo sapiens, UniProt P43405). The assay is described as follows: Syk kinase activity (inhibition) assay, 33P-ATP filter assay. Type of assay: biochemical. Particulars: 10 μM test agent; Syk (h) 5-10 mU; 40 minutes at room temperature. The procedure: In a final reaction volume of 25 μl, Syk (h) (5-10 mU) is incubated with 50 mM Tris pH 7.5, […], 0.1 mM Na3VO4, 0.1% β-mercaptoethanol, 0.1 mg/mL poly (Glu, Tyr) 4:1, 10 μM test agent, 10 mM Mg Acetate and [γ-^33P-ATP] (specific activity approximately 500 cpm/pmol, concentration as required). The reaction is initiated by the addition of the MgATP mix. After incubation for 40 minutes at room temperature, the reaction is stopped by the addition of 5 μl of a 3% phosphoric acid solution. 10 μl of the reaction is then spotted onto a Filtermat A and washed three times for 5 minutes in 75 mM phosphoric acid and once in methanol prior to drying and scintillation counting. Percent inhibition was calculated using the following formula:
% Control=((sample-mean no enzyme)/(mean plus enzyme−mean no enzyme))×100.
What is called inhibition is the change of the read-out against control, counted positive when it falls. Low values mean a weak effect, high ones a strong effect. As to `CN(C)CCN(C)c1ccc(-c2cccc(N(C)C)c2)cn1`, testing at 10 µM gave an inhibition of 45%.

The compound `CN(C)CCN1CCN(c2ccc(-c3cc(C(F)(F)F)cc(C(F)(F)F)c3)cn2)CC1` yielded an inhibition at 10 µM of 56%.

As to `CCCC/C=C/c1ccc(N2CCN(CCN3CCCC3)CC2)nc1`, testing at 10 µM gave an inhibition of 38%.

Regarding `CCOc1cccc(-c2ccc(N(C)CCN(C)C)nc2)c1`, the inhibition at 10 µM came to 42%.

For the compound `c1cc(N2CCN(CCN3CCCC3)CC2)ncc1-c1ccc2c(c1)OCO2`, at 10 µM the inhibition was 32%.

The compound `CN(C)CCN(C)c1ccc(-c2ccc(F)cc2F)cn1` showed an inhibition at 10 µM of 45%.

In the case of `CN(C)CCN1CCN(c2ccc(/C=C/c3ccccc3)cn2)CC1`, 10 µM produced 36% inhibition.

The compound `Fc1ccc(-c2ccc(N3CCOCC3)nc2)c(F)c1` displayed an inhibition at 10 µM of 34%.

Compound `CCCC/C=C/c1ccc(N2CCN(CCN(C)C)CC2)nc1` registered an inhibition at 10 µM of 31%.

In turn, `COc1cncc(-c2ccc(N3CCOCC3)nc2)c1` returned an inhibition at 10 µM of 36%.

`COc1cc(-c2ccc(N3CCN(CCN4CCCC4)CC3)nc2)cc(OC)c1OC` gave an inhibition at 10 µM of 37%.

In turn, `COc1cc(-c2ccc(N3CCN(CCN(C)C)CC3)nc2)cc(OC)c1OC` gave an inhibition at 10 µM of 36%.

In turn, `CN(C)CCN1CCN(c2ccc(-c3ccc(OC(F)(F)F)cc3)cn2)CC1` registered an inhibition at 10 µM of 30%.

`Fc1ccc(-c2ccc(N3CCN(CCN4CCCC4)CC3)nc2)c(F)c1`: the inhibition at 10 µM worked out at 36%.

For `CN(C)CCN(C)c1ccc(-c2ccc(Cl)cc2)cn1`, the inhibition at 10 µM is 51%.

In the case of `Oc1cccc(-c2ccc(N3CCOCC3)nc2)c1`, 10 µM produced 35% inhibition.
